Bridge positions count the residues as written; N and C are the ends. Square brackets hold non-standard residues; d marks the D form. Peptide text beside a SMILES is read from it. * marks the point of attachment. ξ: configuration not given here. Phe(4-COOH) = N[C@@H](Cc1ccc(C(=O)O)cc1)C(=O)O; Bip = N[C@@H](Cc1ccc(-c2ccccc2)cc1)C(=O)O; Tyr(3-F) = N[C@@H](Cc1ccc(O)c(F)c1)C(=O)O; Phe(3-Me) = Cc1cccc(C[C@H](N)C(=O)O)c1; NH(CH2)12COOH = O=C(O)CCCCCCCCCCCCN*; Val(3-OH) = CC(C)(O)[C@H](N)C(=O)O; hArg = N=C(N)NCCCC[C@H](N)C(=O)O; hhGln = NC(=O)CCCC[C@H](N)C(=O)O; Cha = N[C@@H](CC1CCCCC1)C(=O)O; Cit = NC(=O)NCCC[C@H](N)C(=O)O; Thr(3ξ) = CC(O)[C@H](N)C(=O)O; ξH = NC(Cc1c[nH]cn1)C(=O)O; Carboxymethyl = O=C(O)C*; Orn = NCCC[C@H](N)C(=O)O; Aun = NCCCCCCCCCCC(=O)O; Dab = NCC[C@H](N)C(=O)O; Nva = CCC[C@H](N)C(=O)O; Dap = NC[C@H](N)C(=O)O; AEEA = NCCOCCOCC(=O)O; ξC = NC(CS)C(=O)O
molecular target: T1, PD-1/PD-L1 interaction (PE-labeled human PD-L1-Ig binding to Jurkat cell line over-expressing human PD-1) (Homo sapiens, UniProt Q15116); experiment: Jurkat-PD-1 Cell Binding High-Content Screening Assay (CBA); format: cell-based; conditions: Jurkat cell line over-expressing human PD-1; PE-labeled PD-L1-Ig 20 nM final; read-out: Jurkat hPD1-PDL1 IC50
T1 construct: expressed in transfected cells; host or cells: Jurkat
How it was run: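 Binding of fluorescent PD-L1-Ig (phycoerythrin on Ig tag, 20 nM final, 1 h) measured by high-content imaging of fixed, Hoechst-counterstained Jurkat-hPD-1 cells. Compound added 2 h at 37° C beforehand, in DMEM with 10% fetal calf serum.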

T1 sequence (Q15116 25-288): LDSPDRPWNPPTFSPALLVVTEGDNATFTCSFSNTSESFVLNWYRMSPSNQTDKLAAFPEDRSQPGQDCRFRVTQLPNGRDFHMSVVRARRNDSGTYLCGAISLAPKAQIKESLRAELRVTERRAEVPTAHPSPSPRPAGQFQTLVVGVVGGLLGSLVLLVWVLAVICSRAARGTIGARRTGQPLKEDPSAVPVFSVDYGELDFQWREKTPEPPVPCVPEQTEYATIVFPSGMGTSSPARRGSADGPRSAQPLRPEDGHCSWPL

SMILES | IC50
Cc1cccc(C[C@@H]2NC(=O)[C@H](CC(=O)O)NC(=O)[C@H](Cc3ccc(OCC(=O)O)cc3)NC(=O)[C@H](CCCCNC(=N)N)NC(=O)CSC[C@@H](C(=O)N[C@@H](CCCCN)C(=O)NCCCCCCCCCCC(=O)O)NC(=O)[C@H](C(C)O)NC(=O)[C@H](C(C)C)NC(=O)[C@H](CC3CCCCC3)NC(=O)[C@H](Cc3cnc[nH]3)NC(=O)[C@@H](CC(C)C)NC(=O)[C@H](CCCN)NC(=O)[C@H](CCC(=O)O)NC(=O)[C@H](Cc3ccc(-c4ccccc4)cc3)NC(=O)[C@H](C(C)C)NC2=O)c1 (stereo partly drawn) [Compound 3161] ({CH2CO}-[hArg]Y(Carboxymethyl)D[Phe(3-Me)]V[Bip]E[Orn][dL]H[Cha]V[Thr(3ξ)]CK[Aun]-OH; thioether N-14) | 38.9 nM
CC(C)C[C@@H]1NC(=O)[C@H](Cc2c[nH]c3ccccc23)NC(=O)[C@H](CC(=O)O)NC(=O)[C@H](Cc2ccc(C(=O)O)cc2)NC(=O)[C@H](Cc2ccc(OCC(=O)O)cc2)NC(=O)CSC[C@@H](C(=O)NCCOCCOCC(=O)NCCCCCCCCCCC(=O)O)NC(=O)[C@H](CCCCN)NC(=O)[C@H](C(C)C)NC(=O)[C@H](CC2CCCCC2)NC(=O)[C@H](CCN)NC(=O)[C@@H](CC(C)C)NC(=O)[C@H](CCCN)NC(=O)[C@H](Cc2ccc(O)cc2)NC(=O)[C@H](Cc2ccc(-c3ccccc3)cc2)NC1=O [Compound 1241] ({CH2CO}-Y(Carboxymethyl)[Phe(4-COOH)]DWL[Bip]Y[Orn][dL][Dab][Cha]VKC[AEEA][Aun]-OH; thioether N-14) | 18.4 nM
CC(C)C[C@H]1NC(=O)[C@H](CCCN)NC(=O)[C@H](C(C)C)NC(=O)[C@H](Cc2ccc(-c3ccccc3)cc2)NC(=O)[C@H](C(C)C)NC(=O)[C@H](Cc2c[nH]c3ccccc23)NC(=O)[C@H](CC(=O)O)NC(=O)[C@H](Cc2c[nH]cn2)NC(=O)[C@H](CCCCNC(=N)N)NC(=O)CSC[C@@H](C(=O)N[C@@H](CCN)C(=O)NCCCCCCCCCCC(=O)O)NC(=O)[C@H](CCCCN)NC(=O)[C@H](C(C)C)NC(=O)[C@H](CC2CCCCC2)NC(=O)[C@H](CCN)NC1=O [Compound 3270] ({CH2CO}-[hArg]HDWV[Bip]V[Orn][dL][Dab][Cha]VKC[Dab][Aun]-OH; thioether N-14) | 32 nM
CC(C)C[C@H]1NC(=O)[C@H](CCCN)NC(=O)[C@H](Cc2ccc(O)cc2)NC(=O)[C@H](Cc2ccc(-c3ccccc3)cc2)NC(=O)[C@H](C(C)C)NC(=O)[C@H](Cc2c[nH]c3ccccc23)NC(=O)[C@H](CC(=O)O)NC(=O)[C@H](Cc2ccc(OCC(=O)O)cc2)NC(=O)[C@H](C(C)O)NC(=O)CSC[C@@H](C(=O)N[C@@H](CCN)C(=O)NCCCCCCCCCCC(=O)O)NC(=O)[C@H](CN)NC(=O)[C@H](C(C)O)NC(=O)[C@H](CC2CCCCC2)NC(=O)[C@H](CCN)NC1=O (stereo partly drawn) [Compound 3667] ({CH2CO}-[Thr(3ξ)]Y(Carboxymethyl)DWV[Bip]Y[Orn][dL][Dab][Cha][Thr(3ξ)][Dap]C[Dab][Aun]-OH; thioether N-14) | 37.4 nM
CC(C)C[C@H]1NC(=O)[C@H](CCCN)NC(=O)[C@H](Cc2ccc(O)cc2)NC(=O)[C@H](Cc2ccc(-c3ccccc3)cc2)NC(=O)[C@H](Cc2ccc(O)cc2)NC(=O)[C@H](Cc2ccc(O)c(F)c2)NC(=O)[C@H](CC(=O)O)NC(=O)[C@H](Cc2ccc(OCC(=O)O)cc2)NC(=O)[C@H](CCCNC(=N)N)NC(=O)CSC[C@@H](C(=O)N[C@@H](CCN)C(=O)NCCCCCCCCCCC(=O)O)NC(=O)[C@H]([C@@H](C)O)NC(=O)[C@H](C(C)C)NC(=O)[C@H](CC2CCCCC2)NC(=O)[C@H](CCN)NC1=O [Compound 2103] ({CH2CO}-RY(Carboxymethyl)D[Tyr(3-F)]Y[Bip]Y[Orn][dL][Dab][Cha]VTC[Dab][Aun]-OH; thioether N-14) | 69.9 nM
CCC[C@@H]1NC(=O)CSC[C@@H](C(=O)N[C@@H](CCN)C(=O)NCCCCCCCCCCCCC(=O)O)NC(=O)[C@H](CO)NC(=O)[C@H](C(C)(C)O)NC(=O)[C@H](CC2CCCCC2)NC(=O)[C@H](CCN)NC(=O)[C@@H](CC(C)C)NC(=O)[C@H](CCCN)NC(=O)[C@H](Cc2ccc(OCC(=O)O)cc2)NC(=O)[C@H](Cc2ccc(-c3ccccc3)cc2)NC(=O)[C@H](Cc2ccc(OCC(=O)O)cc2)NC(=O)[C@H](Cc2cccc(C)c2)NC(=O)[C@H](CC(=O)O)NC(=O)[C@H](Cc2ccc(OCC(=O)O)cc2)NC1=O [Compound 2226] ({CH2CO}-[Nva]Y(Carboxymethyl)D[Phe(3-Me)]Y(Carboxymethyl)[Bip]Y(Carboxymethyl)[Orn][dL][Dab][Cha][Val(3-OH)]SC[Dab]-{NH(CH2)12COOH}; thioether N-14) | 27.8 nM

Further lines, results first:

IC50 | SMILES
22.1 nM | CC(C)C[C@H]1NC(=O)[C@H](CCCN)NC(=O)[C@H](C(C)C)NC(=O)[C@H](Cc2ccc(-c3ccccc3)cc2)NC(=O)[C@H](C(C)C)NC(=O)[C@H](Cc2c[nH]c3ccccc23)NC(=O)[C@H](CC(=O)O)NC(=O)[C@H](Cc2ccc(OCC(=O)O)cc2)NC(=O)[C@H](CN)NC(=O)CSC[C@@H](C(=O)N[C@@H](CCN)C(=O)NCCCCCCCCCCC(=O)O)NC(=O)[C@H](Cc2cnc[nH]2)NC(=O)[C@H](C(C)O)NC(=O)[C@H](CC2CCCCC2)NC(=O)[C@H](CCN)NC1=O (stereo partly drawn) [Compound 3652] ({CH2CO}-[Dap]Y(Carboxymethyl)DWV[Bip]V[Orn][dL][Dab][Cha][Thr(3ξ)]HC[Dab][Aun]-OH; thioether N-14)
71.3 nM | CC(C)C[C@@H]1NC(=O)[C@H](Cc2c[nH]c3ccccc23)NC(=O)[C@H](CC(=O)O)NC(=O)[C@H](Cc2ccc(OCC(=O)O)cc2)NC(=O)[C@H](C(C)O)NC(=O)CSC[C@@H](C(=O)NCCOCCOCC(=O)NCCCCCCCCCCC(=O)O)NC(=O)[C@H](Cc2cnc[nH]2)NC(=O)[C@H](C(C)O)NC(=O)[C@H](CC2CCCCC2)NC(=O)[C@H](CCN)NC(=O)[C@@H](CC(C)C)NC(=O)[C@H](CCCN)NC(=O)[C@H](C(C)C)NC(=O)[C@H](Cc2ccc(-c3ccccc3)cc2)NC1=O (stereo partly drawn) [Compound 3691] ({CH2CO}-[Thr(3ξ)]Y(Carboxymethyl)DWL[Bip]V[Orn][dL][Dab][Cha][Thr(3ξ)]HC[AEEA][Aun]-OH; thioether N-14)
14.1 nM | CC(C)C[C@H]1NC(=O)[C@H](CCCN)NC(=O)[C@H](CCCCC(N)=O)NC(=O)[C@H](Cc2ccc(-c3ccccc3)cc2)NC(=O)[C@H](C(C)C)NC(=O)[C@H](Cc2c[nH]c3ccccc23)NC(=O)[C@H](CC(=O)O)NC(=O)[C@H](Cc2ccc(OCC(=O)O)cc2)NC(=O)[C@H](CN)NC(=O)CSC[C@@H](C(=O)N[C@@H](CCN)C(=O)NCCOCCOCC(=O)NCCCCCCCCCCC(=O)O)NC(=O)[C@H](CCCCN)NC(=O)[C@H](C(C)C)NC(=O)[C@H](CC2CCCCC2)NC(=O)[C@H](CCN)NC1=O [Compound 2631] ({CH2CO}-[Dap]Y(Carboxymethyl)DWV[Bip][hhGln][Orn][dL][Dab][Cha]VKC[Dab][AEEA][Aun]-OH; thioether N-14)
18.6 nM | CC(C)C[C@H]1NC(=O)[C@H](CCCN)NC(=O)[C@H](C(C)C)NC(=O)[C@H](Cc2ccc(-c3ccccc3)cc2)NC(=O)[C@H](C(C)C)NC(=O)[C@H](Cc2c[nH]c3ccccc23)NC(=O)[C@H](CC(=O)O)NC(=O)[C@H](Cc2ccc(OCC(=O)O)cc2)NC(=O)[C@H](CN)NC(=O)CSC[C@@H](C(=O)NCCOCCOCC(=O)NC(Cc2cnc[nH]2)C(=O)NCCCCCCCCCCC(=O)O)NC(=O)[C@H]([C@@H](C)O)NC(=O)[C@H](C(C)C)NC(=O)[C@H](CC2CCCCC2)NC(=O)[C@H](Cc2cnc[nH]2)NC1=O (stereo partly drawn) [Compound 1137] ({CH2CO}-[Dap]Y(Carboxymethyl)DWV[Bip]V[Orn][dL]H[Cha]VTC[AEEA][ξH][Aun]-OH; thioether N-14)
6.8 nM | Cc1cccc(C[C@@H]2NC(=O)[C@H](CC(=O)O)NC(=O)[C@H](Cc3ccc(OCC(=O)O)cc3)NC(=O)[C@H](CCN)NC(=O)CSC[C@@H](C(=O)N[C@@H](CC(N)=O)C(=O)NCCCCCCCCCCC(=O)O)NC(=O)[C@H](Cc3cnc[nH]3)NC(=O)[C@H](C(C)O)NC(=O)[C@H](CC3CCCCC3)NC(=O)[C@H](CCN)NC(=O)[C@@H](CC(C)C)NC(=O)[C@H](CCCN)NC(=O)[C@H](Cc3ccc(OCC(=O)O)cc3)NC(=O)[C@H](Cc3ccc(-c4ccccc4)cc3)NC(=O)[C@H](Cc3ccc(OCC(=O)O)cc3)NC2=O)c1 (stereo partly drawn) [Compound 3642] ({CH2CO}-[Dab]Y(Carboxymethyl)D[Phe(3-Me)]Y(Carboxymethyl)[Bip]Y(Carboxymethyl)[Orn][dL][Dab][Cha][Thr(3ξ)]HCN[Aun]-OH; thioether N-14)
30.2 nM | Cc1cccc(C[C@@H]2NC(=O)[C@H](CC(=O)O)NC(=O)[C@H](Cc3ccc(OCC(=O)O)cc3)NC(=O)[C@H](CCCNC(=N)N)NC(=O)CSC[C@@H](C(=O)N[C@@H](CCCN)C(=O)NCCCCCCCCCCC(=O)O)NC(=O)[C@H]([C@@H](C)O)NC(=O)[C@H](C(C)C)NC(=O)[C@H](CC3CCCCC3)NC(=O)[C@H](CCN)NC(=O)[C@@H](CC(C)C)NC(=O)[C@H](CCCNC(N)=O)NC(=O)[C@H](Cc3ccc(OCC(=O)O)cc3)NC(=O)[C@H](Cc3ccc(-c4ccccc4)cc3)NC(=O)[C@H](Cc3ccc(OCC(=O)O)cc3)NC2=O)c1 [Compound 2838] ({CH2CO}-RY(Carboxymethyl)D[Phe(3-Me)]Y(Carboxymethyl)[Bip]Y(Carboxymethyl)[Cit][dL][Dab][Cha]VTC[Orn][Aun]-OH; thioether N-14)
8.9 nM | CC[C@H](C)[C@@H]1NC(=O)[C@H](Cc2ccc(-c3ccccc3)cc2)NC(=O)[C@H](C(C)C)NC(=O)[C@H](Cc2cccc(C)c2)NC(=O)[C@H](CC(=O)O)NC(=O)[C@H](Cc2ccc(OCC(=O)O)cc2)NC(=O)[C@H](CN)NC(=O)CSCC(C(=O)NCCOCCOCC(=O)NCCCCCCCCCCC(=O)O)NC(=O)[C@H](CCCN)NC(=O)[C@H](C(C)C)NC(=O)[C@H](CC2CCCCC2)NC(=O)[C@H](CCN)NC(=O)[C@@H](CC(C)C)NC(=O)[C@H](CCCN)NC1=O (stereo partly drawn) [Compound 2648] ({CH2CO}-[Dap]Y(Carboxymethyl)D[Phe(3-Me)]V[Bip]I[Orn][dL][Dab][Cha]V[Orn][ξC][AEEA][Aun]-OH; thioether N-14)

— patent publication US20260022142A1, “MACROCYCLIC IMMUNOMODULATORS” (Bristol-Myers Squibb Company, priority 2022, published 2026)
